Measurements reported in PubChem BioAssay AID977606 (Broad Institute, 2014).
Values joined by “and” are separate entries in the source; they are usually repeats but may differ in a detail not shown here. Identical values can stand only once. Active and inactive are the calls of the source. No rule for the calls is given here.

System: INS-1E Gaussia luciferase insulin secretion, no glucose, luminescence
Test: glucose-independent GLuc insulin release activation – cell-based, INS-1E, Gaussia luciferase, luminescence, cherry-pick, counter-screen for glucose-dependent insulin secretion activators, dose response (AID 977606)

| Compound | AC40 |
| --- | --- |
| Cc1ccc(C(=O)c2sc3nc4c(cc3c2N)CCC4)cc1 | 11.3 µM |
| O=C(Nc1nc2ccccc2n1Cc1ccc(Cl)cc1)c1ccco1 | 6.72 µM |
| CN(C)CCOc1ccc(-c2c(-c3ccsc3)sc3ccccc23)cc1 | 5.7 µM |
| COc1ccc(C(O)c2nc(-c3ccc(OC)c(OC)c3)cs2)cc1 (configuration not stated) | 34.2 µM |
| COc1ccc(CC(N)c2csc(NC(=O)Nc3ccc(C(C)C)cc3)n2)cc1 (configuration not stated) | 3.58 µM |
| Cc1nc2c(-c3ccc(F)cc3)cnn2c2c1CCC2 | 20.1 µM |
| COC(=O)C1=C(C)N(Cc2ccc(C(F)(F)F)cc2)C(=NCC2CC2)NC1c1ccccc1 (configuration not stated) | 9.63 µM |
| CC(=O)c1nn(-c2ccc(Br)cc2)cc1C(=O)c1ccccc1 | 22.1 µM |
| Fc1ccc(-c2ccc(C3[C@@H]4CN(Cc5cccc(F)c5)C[C@H]3N4)cc2)cc1 (some centres not stated) | 5.18 µM |
| Cc1ccc(-n2sc3cc(F)ccc3c2=O)c(C)c1 | 0.883 µM |
| CCOC(=O)CN1C(=O)[C@]2(OCCC=C[C@H]2C)c2ccccc21 | 13 µM |
| CCOc1ccc(CN2C(=O)c3ccccc3C2=O)cc1C(=O)Nc1nnc(SCC)s1 | 5.71 µM |
| COc1cccc(-c2cc(C(=O)Nc3cc(C)on3)no2)c1 | 10.7 µM |
| CCOc1ccc(/C=N/NC(=O)c2cc(-c3ccco3)nc3ccccc23)cc1 | 6.73 µM |
| COc1ccc(-c2ccc3c(N)c(C(=O)c4ccc(OC)c(OC)c4)sc3n2)cc1 | 6.27 µM |
| CC(C)n1nc(C(=O)Nc2ccccc2N2CCOCC2)c2ccccc2c1=O | 6.12 µM |
| CCN(Cc1ccccc1)S(=O)(=O)c1ccc(C(=O)Nc2nnc(C)o2)cc1 | 0.0558 µM |
| O=C(N/N=C/c1ccc(O)cc1O)NC12CC3CC(CC(C3)C1)C2 | 13.3 µM |
| CCOc1ncccc1C(=O)NC(C)CCc1ccccc1 (configuration not stated) | 16.2 µM |
| O=C(NN=Cc1ccccc1Cl)c1cccc2ccccc12 | 7.18 µM |
| COC(=O)C1=C(C)N(Cc2cccc(C(F)(F)F)c2)C(=NCc2ccc(OC)cc2)NC1c1cccc(F)c1 (configuration not stated) | 3.75 µM |
| C[C@@H](NC(=O)C[C@@H]1C[C@@H]2c3cc(NC(=O)Nc4ccccc4F)ccc3O[C@@H]2[C@@H](CO)O1)c1ccccc1 | 34.3 µM |
| COc1ccc(C(CCNCc2ccc(OC(C)C)cc2)C(C)C)cc1 (configuration not stated) | 12.3 µM |
| CCCCCc1c(Cc2ccccc2)ncn1CCc1ccccc1OC | 8.28 µM |
| CC(C)CC#Cc1ccc2c(c1)O[C@H](CN(C)C(=O)C1CCCCC1)[C@@H](C)CN([C@@H](C)CO)S2(=O)=O | 15.8 µM |
| O=C(N/N=C\c1ccc(CNS(=O)(=O)c2ccc(Cl)cc2)o1)C(=O)Nc1ccc(Oc2ccccc2)cc1 | 1.8 µM |

| Compound | AC40 |
| --- | --- |
| O=C(COc1ccc2c(c1)OCO2)Nc1ccc2c(c1)oc1ccccc12 | 12.2 µM |
| COc1ccc(C(=O)Nc2ccc3c(c2)C(=O)c2ccccc2C3=O)cc1OC | > 35 µM (inactive) |
| CCCCCCCOC(=O)c1nc(Cl)c(Cl)c(N)c1Cl | 8.89 µM |
| FC(F)(F)c1cc(CCN2CCNC[C@H]2Cc2cccc3ccccc23)cc(C(F)(F)F)c1 | 3.69 µM |
| CCCCc1c(-c2ccc(F)cc2F)ncn1CCc1ccccc1OC | 5.38 µM |
| Cc1ccccc1Cn1ccc(NC(=O)c2cc3nc(-c4ccco4)cc(C(F)(F)F)n3n2)n1 | 7.7 µM |
| COc1ccc(NC(=O)c2sc3nc(N4CCOCC4)c4c(c3c2N)CC(C)(C)OC4)c(OC)c1 | 6.06 µM |
| CNC[C@@H](Cc1ccccc1)NC[C@@H](CC1CCCCC1)NCCCc1ccccc1 | 13.1 µM |
| CCS(=O)(=O)Nc1ccc(-c2cc(-c3ccccc3)c3cc(C)ccc3n2)cc1 | 17.5 µM |
| Cc1cccc(Cn2ccc(-c3ccc(Cl)cc3)c(C#N)c2=O)c1 | 3.46 µM |
| COc1ccc(Br)cc1C(=O)Nc1cccc(C)c1 | 9.88 µM |
| O=c1[nH][nH]c2c1C(c1ccc(Cl)c(Cl)c1)OC(CCc1ccccc1)C2 (configuration not stated) | 19.2 µM |
| COc1ccc(C[C@H]2CN3C(=NC[C@@H]3Cc3ccccc3)N2CCNC(=O)CCC2CCCCC2)cc1 | 13.5 µM |
| OC(CNCCC1C=Nc2ccccc21)Cn1c2ccc(Cl)cc2c2cc(Cl)ccc21 (configuration not stated) | 9.56 µM |
| CCCCCCn1c(N(CC)CC)nc2c1c(=O)[nH]c(=O)n2C | 30.8 µM |
| CCCOc1ccc(/C=N/NC(=O)C(=O)Nc2ccccn2)cc1 | 18.5 µM |
| O=C(Nc1ccc(Cl)c(Cl)c1)Nc1nc(-c2ccccc2)cs1 | 4.07 µM |
| CC(C)Sc1nc2c(c(=O)[nH]c(=O)n2C)n1Cc1ccc(Cl)cc1 | 14 µM |
| COc1cc(CNCCc2ccccc2)cc(Cl)c1OCc1ccccc1 | 7.96 µM |
| Cc1cc(C)cc(OCCCN2CCC(C(O)(c3ccccc3)c3ccccc3)CC2)c1 | 6.87 µM |
| COc1nc(-c2ccc(Cl)cc2)ccc1-c1noc(-c2ccco2)n1 | 16 µM |
| CCCNC(=O)Cn1sc2nc(C)cc(C)c2c1=O | 2.31 µM |
| O=C(Nc1ccc(C(F)(F)F)cc1)N1C[C@@H]2N[C@H](C1)C2c1ccc(/C=C/c2ccccc2)cc1 (some centres not stated) | 5.24 µM and 0.87 µM |
| Cc1cc(Nc2ccc(Cl)cc2)nc(NCc2ccccc2)n1 | 6.67 µM |
| CN(C)CCNC(=O)c1cccc(-c2cc(NC=O)c3ncc(-c4cccc(C(F)(F)F)c4)n3c2)c1 | 13.7 µM |
| CCOC(=O)Cn1c(=NC(=O)c2nc3ccccc3s2)sc2cc(S(N)(=O)=O)ccc21 | 18.3 µM |

| Compound | AC40 |
| --- | --- |
| Cc1cc(C)c2nc(N(CCCN(C)C)C(=O)c3ccc4c(c3)CCCC4)sc2c1 | 7.77 µM |
| COc1ccc(S(=O)(=O)N2CCc3ccccc3C2)cc1OC | > 35 µM (inactive) |
| CC(C)(C(=O)N1CCC1(C)C(=O)NS(=O)(=O)c1ccc(Br)cc1)c1ccccc1 (configuration not stated) | 10.3 µM |
| CNc1nc(-c2ccccc2)[n+](-c2ccc(C)cc2)s1 | 0.858 µM |
| FC(F)(F)c1cc(CCN2CCNC[C@@H]2c2ccccc2)cc(C(F)(F)F)c1 | 7.26 µM |
| COCCN(CCOC)Cc1cc(=O)oc2cc(OC)c(Cl)cc12 | > 35 µM (inactive) |
| O=C(Nc1ccc(SC(F)F)cc1)c1cccc2nc3ccccc3nc12 | 10.2 µM |
| CN(Cc1ccccc1)C(=S)NC(=O)c1ccc(-c2ccccc2)cc1 | 24 µM |
| Nc1c(C(=O)Nc2ccc3c(c2)OCCO3)nnn1Cc1ccc(Cl)cc1 | 10.1 µM |
| CC(NC(=O)COC(=O)c1ccccc1Nc1ccccc1)c1ccccc1 (configuration not stated) | 12.1 µM |
| CCCCc1c(-c2ccccc2OC)ncn1Cc1ccc(C)cc1 | 11.9 µM |
| COC(=O)C1=C(C)N(Cc2cccc(C(F)(F)F)c2)C(=NCc2ccc(OC)cc2)NC1c1ccc(F)cc1 (configuration not stated) | 8.44 µM |
| OC(c1ccccc1)(c1ccccc1)C1CCN(CCCOc2cccc(OC(F)(F)F)c2)CC1 | 3.95 µM |
| CCc1c(C)sc(NC(=O)c2cc(-c3ccc(OC)c(OC)c3)on2)c1C#N | 6.43 µM |
| CC1(Cc2ccc(C(F)(F)F)o2)C(=O)Nc2ccc(-c3cccc(C(F)(F)F)c3)cc21 (configuration not stated) | 5.92 µM |
| Cc1ccc2oc(-c3ccc(NC(=O)c4ccc5c(c4)OCO5)cc3)nc2c1 | 1.1 µM |
| CN1CCN(CC(O)COC(c2ccc(Cl)cc2)c2ccc(Cl)cc2)CC1 (configuration not stated) | 13.3 µM |
| Cc1cccc(-c2ccc(C3[C@@H]4CN(C(=O)C5CCCCC5)C[C@H]3N4)cc2)c1 (some centres not stated) | 11.3 µM |
| COC(=O)C1=C(C)N(Cc2cccc(C(F)(F)F)c2)C(=NCc2ccc(OC)cc2)NC1c1cccc(Cl)c1 (configuration not stated) | 5.16 µM |
| CCOC(=O)c1ccc(Nc2ncnc3ccc(C)cc23)cc1 | 11.5 µM |
| O=C(OCC12CC3CC(CC(C3)C1)C2)c1ccc(NCc2cc(O)ccc2O)cc1 | 9.2 µM |
| CCCCc1c(Cc2ccccc2)ncn1CCc1ccccc1OC | 9.34 µM |
| O=c1c2ccc(F)cc2sn1-c1ccccc1 | 1.45 µM |
| Cc1ccccc1CSCc1ccc(C(=O)NCCCN2CCOCC2)o1 | 26.4 µM |
| Cc1ccccc1-c1ccc(C2[C@@H]3CN(S(=O)(=O)c4ccccc4C)C[C@H]2N3)cc1 (some centres not stated) | 5.8 µM |
